According to US20170029366A1, “INHIBITORS OF HISTONE LYSINE SPECIFIC DEMETHYLASE (LSD1) AND HISTONE DEACETYLASES (HDACS)” (THE JOHNS HOPKINS UNIVERSITY, priority 2014, published 2017):
“And” between values parts separate entries of the source, which are not always exact repeats. Equal entries are not always repeated.

Legend:
MAO-A = target: T1, MAO-A (Homo sapiens, UniProt P21397); assay: MAO-A activity and inhibition assay (peroxidase-coupled, tyramine); format: biochemical
T1 construct: purchased Sigma M 7316
T1 sequence (P21397 1-527): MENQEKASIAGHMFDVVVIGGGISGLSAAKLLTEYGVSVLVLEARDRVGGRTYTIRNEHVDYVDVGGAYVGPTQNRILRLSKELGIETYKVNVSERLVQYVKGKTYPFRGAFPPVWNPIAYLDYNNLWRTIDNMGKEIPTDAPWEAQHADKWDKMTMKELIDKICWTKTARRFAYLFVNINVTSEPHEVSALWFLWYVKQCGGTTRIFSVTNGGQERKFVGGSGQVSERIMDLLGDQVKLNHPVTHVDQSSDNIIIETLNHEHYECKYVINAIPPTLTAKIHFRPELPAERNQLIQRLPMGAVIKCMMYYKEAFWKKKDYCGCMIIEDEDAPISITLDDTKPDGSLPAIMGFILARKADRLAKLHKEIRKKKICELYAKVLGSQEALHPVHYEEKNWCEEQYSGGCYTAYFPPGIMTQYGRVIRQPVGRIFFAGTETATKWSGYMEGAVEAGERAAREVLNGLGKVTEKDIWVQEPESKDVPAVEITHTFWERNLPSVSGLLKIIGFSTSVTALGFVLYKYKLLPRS
Experimental: (§1) MAO-A/B activity was measured spectrophotometrically using a peroxidase-coupled assay as previously described.
(§2) Each experiment was repeated at least two independent times and repeat measured values were typically within 20% of each other.

MAO-B = target: T2, MAO-B (Homo sapiens, UniProt P27338); assay: MAO-B activity and inhibition assay (peroxidase-coupled, tyramine); format: biochemical
T2 construct: purchased Sigma M 7441
T2 sequence (P27338 1-520): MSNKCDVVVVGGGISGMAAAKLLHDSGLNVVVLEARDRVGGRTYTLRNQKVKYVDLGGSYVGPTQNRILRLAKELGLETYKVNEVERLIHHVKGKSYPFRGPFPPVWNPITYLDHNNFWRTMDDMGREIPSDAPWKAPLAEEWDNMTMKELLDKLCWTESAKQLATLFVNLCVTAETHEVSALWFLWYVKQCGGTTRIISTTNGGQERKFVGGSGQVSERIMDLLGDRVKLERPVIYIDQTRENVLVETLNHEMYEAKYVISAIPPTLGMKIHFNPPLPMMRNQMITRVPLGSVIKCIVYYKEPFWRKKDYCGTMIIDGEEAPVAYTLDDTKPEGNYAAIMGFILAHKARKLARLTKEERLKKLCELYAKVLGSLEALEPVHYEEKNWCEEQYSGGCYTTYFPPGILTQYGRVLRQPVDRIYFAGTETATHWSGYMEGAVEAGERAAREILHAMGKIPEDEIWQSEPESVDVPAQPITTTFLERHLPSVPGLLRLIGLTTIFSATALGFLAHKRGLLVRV
Experimental: as §1, §2

H3K4Me2 in LNCaP cells = assay: Western blot of histone H3 marks in LNCaP cells; format: cell-based
Text: Histone extracts were isolated as described previously. […] Data are presented from one representative experiment.
H3K4Me was detected using a polyclonal rabbit antibody (abcam ab8895). H3K4Me2 was detected using a monoclonal rabbit antibody (abcam ab32356). H3K4Me3 was detected using a polyclonal rabbit antibody (abcam ab8580). […] H3K9Me2 was detected using a monoclonal mouse antibody (abcam ab1220). H3K36Me3 was detected using a polyclonal rabbit antibody (abcam ab9050). H3K9Ac was detected using a polyclonal rabbit antibody (abcam ab4441). Total H3 was detected using a polyclonal rabbit antibody (abcam ab1791). LSD1 was detected using a polyclonal rabbit antibody (abcam ab17721). Actin was detected using a monoclonal mouse antibody (Sigma A1978).

H3K4Me2 in H460 cells = assay: Western blot of H3K4Me2 in H460 cells; format: cell-based; details: 48 h, compared with LNCaP
H3K4Me2 in A549 cells = assay: Western blot of H3K4Me2 in A549 cells; format: cell-based; details: 48 h
H3K4Me2 in MB-231 cells = assay: Western blot of H3K4Me2 in MB-231 cells; format: cell-based; details: 48 h
H460 cells = assay: [3H] thymidine incorporation assay in H460 cells; format: cell-based; details: Homo sapiens, NCI-H460, 48 h, read-out: IC50 of cellular proliferation rate (3H-thymidine incorporation)
LNCaP cells = assay: [3H] thymidine incorporation assay in LNCaP cells; format: cell-based; details: Homo sapiens, 48 h, read-out: IC50 of cellular proliferation rate (3H-thymidine incorporation)
Experimental: The effects of bizine on cell proliferation using a ^3H-thymidine incorporation assay were examined as a measure of the rate of DNA synthesis.
6 hours prior to harvesting cells, 10 μL of 0.1 mCi/mL Thymidine [methyl-3H] (ARC ART0178) was added to each well. The cells were then harvested (PerkinElmer) and radioactivity was measured with a liquid scintillation counter (PerkinElmer MicroBeta).

[1] = system: Immature primary cortical neurons; assay: Oxidative toxicity (HCA) and neuron viability assay (MTT); format: cell-based, Sprague Dawley rats; details: 0.5 μM, 5 mM HCA, MTT
Experimental: The next day cells were rinsed and then placed in medium containing 5 mM HCA. […] The next day, cell viability was assessed by the MTT assay (Promega). […] The two-way ANOVA followed by the Bonferroni posttest was used to measure statistical significance. p<0.05 was considered to be statistically significant. Each bar represents four different rat cultures.

GST-LSD1 [2] = target: T3, GST-LSD1 (Homo sapiens, UniProt O60341)
GST-LSD1 [3] = target: T3, GST-LSD1; assay: MassSQUIRM LSD1 inhibition assay; format: biochemical; design: made in house; host or cells: E. coli; details: 50 μM inhibitor, 215 nM GST-LSD1, 30 min, 25° C.
Experimental: MassSQUIRM inhibition experiments were performed in triplicate as described previously. […] The demethylase reactions were run at 25° C. for 30 min and then analyzed as reported previously.

`Cl.Cl.NNCCc1ccc(NC(=O)CCCc2ccccc2)cc1` [Compound 12d, N-[4-(2-Hydrazinylethyl)phenyl]-4-phenylbutanamide dihydrochloride] was tested, and the “k(inact)” value (MAO-A) was 0.30 ± 0.11 min⁻¹, the “k(inact)” value (MAO-B) was 0.26 ± 0.14 min⁻¹ and the “time of compound exposure at which changes in H3K4Me2 could be detected” value (H3K4Me2 in LNCaP cells; 10 μM) was at most 6 h. For the same molecule, the EC50 (H3K4Me2 in LNCaP cells; Homo sapiens, 48 h, Western blot, read-out: EC50 of increase in H3K4Me2 signal) was about 2 µM, the “effects on H3K4Me2 levels (in words)” value (H3K4Me2 in H460 cells) was “comparable dose-response effects” and the “concentration required for reproducible increases in H3K4Me2” value (H3K4Me2 in A549 cells) was 20 µM. The “concentration required for reproducible increases in H3K4Me2” value (H3K4Me2 in MB-231 cells) was 20 µM, the IC50 (H460 cells) was 14 µM and the IC50 (LNCaP cells) was 16 µM. For the same molecule, the “survival of neurons after HCA-treatment” value [1] was “significantly enhanced survival of neurons”, the “k(inact)” value (GST-LSD1 [2]; GST-LSD1, peroxidase-coupled assay, dihydrochloride) was 0.15 min⁻¹ and 0.15 ± 0.017 min⁻¹ and the “LSD1 inhibitory potency (in words)” value (GST-LSD1 [2]; structure-activity comment on Table 1) was “most potent LSD1 inhibitor”. The “LSD1 inhibition in MassSQUIRM assay (in words)” value (GST-LSD1 [3]) was “very substantial LSD1 inhibition”.
